Experimental data: patent EP3175850B1, “PHARMACEUTICAL COMPOSITION FOR ALLEVIATING OR TREATING GOUT AND USES THEREOF” (Industrial Technology Research Institute, priority 2014, dated 2016)

What was measured:
Assay type in all cases: in vivo
[1] = tested on: neutrophil cell (CD45^+/Ly6G^+ cells); experiment: Mouse air pouch model (MSU crystal-induced acute gouty arthritis): neutrophil cell density in exudate by flow cytometry; conditions: Example 4, Table 3; for INHIBITION RATE (neutrophil cell density): CD45^+/Ly6G^+ cells, vs blank control, topical 100 mg paste/mouse (5 mg total active); for AVERAGE VALUES (normalized cell density, neutrophil CD45^+/Ly6G^+ cells): topical 100 mg paste/mouse (5 mg total active) 15 hours prior to MSU, exudate 5 hours after MSU, blank control 360
Method: (§1) Mouse Air pouch model: this mouse model may be referenced to the methods and the experimental details as in the published article "Role of S100A8 and S100A9 in neutrophil recruitment in response to monosodium urate monohydrate crystals in the air-pouch model of acute gouty arthritis", Arthritis Rheum 2003 Aug, 48(8):2310-20.
(§2) Before the experiment, the mice are shaved to remove back hair. At day 0 sterile filtered air (2 ml/per mouse) is injected through 0.22 µm microfilter to the back of each mouse subcutaneously, so that a pseudosynovial cavity is formed in each mouse. At day 3, an air booster (3 ml/mouse) is again given to each mouse, so that the air pouch is maintained round. Later, the mice are weighed and grouped so that the average weight of the mice in each group is about the same. At day 6 monosodium urate (MSU) crystal suspension (5 mg in 2 ml/per mouse) is injected into the air pouch. Topical application of the paste (100 mg paste/per mouse) is administrated 15 hours prior to MSU stimulation. At a specific time (5 hours) after the injection of MSU, the mice were euthanized with an excess of carbon dioxide, 2 ml PBS per mouse is injected into the air pouch, and the air pouch is carefully cut to collect the exudate. The collected exudate is subjected to the centrifugation at 1,000 rpm, 4°C for 5 minutes, and the supernatant is then placed in a 96-well plate and stored at -20°C. An ELISA kit (purchased from R&D Systems) is used to analyze the contents of IL-1β and IL-6 in the exudate. The precipitate is resuspended and reacted with 1 ml red blood cell lysis buffer (RBC lysis buffer) for one minute to remove the red blood cells, followed by adding 1 ml PBS to terminate the reaction, centrifuged at 1,000 rpm, 25°C for 5 minutes, and the supernatant is discarded. The precipitate is then resuspended in 1 ml PBS as the cell suspension and the cell suspension is filtered by filter membrane (BD Falcon 100 µm Nylon filter strainer) and the filtered cell suspension is dispensed into several tubes (0.25 ml/tube) for subsequent cell counting or for labelling with various differentiation antigen markers (such as cluster of differentiation (CD) markers). The flow cytometry is used for cell counting of the various cells.
(§3) In order to investigate the anti-gout efficacy of AG02-RA1 and AG04-RA1, either used alone or in combination, the experiments are performed to test AG02-RA1 alone, AG04-RA1 alone and the combination(s) of AG02-RA1 :AG04-RA1 in the ratio of 50:50 (Composition Nos. 1, 2 and 3 as shown in Table 1). The total weight of the content of AG02-RA1 and/or AG04-RA1 is 5 mg, accounting for 5 % of the total weight of the test sample paste composition. […]

[2] = tested on: leukocyte cell (CD45^+ cells); experiment: Mouse air pouch model (MSU crystal-induced acute gouty arthritis): leukocyte cell density in exudate by flow cytometry; conditions: for AVERAGE VALUES (normalized leukocyte cell density): Example 4, Table 2, topical 100 mg paste/mouse (5 mg total active) 15 hours prior to MSU, exudate 5 hours after MSU, blank control 803; for INHIBITION RATE (leukocyte cell density): Example 4, Table 2, vs blank control, topical 100 mg paste/mouse (5 mg total active) 15 hours prior to MSU, 5 hours after MSU
Method: as §1, §2, §3

interleukin-1β (mIL-1β) = experiment: Mouse air pouch model (MSU crystal-induced): IL-1β content of exudate by ELISA; conditions: Example 4, Figure 3; topical 100 mg paste/mouse (5 mg total active) 15 hours prior to MSU; exudate 5 hours after MSU
Method: as §1
(§4) Before the experiment, the mice are shaved to remove back hair. At day 0 sterile filtered air (2 ml/per mouse) is injected through 0.22 µm microfilter to the back of each mouse subcutaneously, so that a pseudosynovial cavity is formed in each mouse. At day 3, an air booster (3 ml/mouse) is again given to each mouse, so that the air pouch is maintained round. Later, the mice are weighed and grouped so that the average weight of the mice in each group is about the same. At day 6 monosodium urate (MSU) crystal suspension (5 mg in 2 ml/per mouse) is injected into the air pouch. Topical application of the paste (100 mg paste/per mouse) is administrated 15 hours prior to MSU stimulation. At a specific time (5 hours) after the injection of MSU, the mice were euthanized with an excess of carbon dioxide, 2 ml PBS per mouse is injected into the air pouch, and the air pouch is carefully cut to collect the exudate. The collected exudate is subjected to the centrifugation at 1,000 rpm, 4°C for 5 minutes, and the supernatant is then placed in a 96-well plate and stored at -20°C. […]

interleukin-6 (mIL-6) = experiment: Mouse air pouch model (MSU crystal-induced): IL-6 content of exudate by ELISA; conditions: Example 4, Figure 4; topical 100 mg paste/mouse (5 mg total active) 15 hours prior to MSU; exudate 5 hours after MSU
Method: as §1, §4

## 3,7,11,15(17)-cembratetraene-16,2:19,6-diolide-3484-37-5(3E,12E)-3,12-dimethyl-8-methylene-6,18-dioxa-tricyclo[14.2.1.0.5,9]nonadeca-3,12,16(19)-triene-7,17-dione [AG02-RA1]
[1]
  INHIBITION RATE (neutrophil cell density): 63%
  AVERAGE VALUES (normalized cell density, neutrophil CD45^+/Ly6G^+ cells): 133 cells*10^3/ml
[2]
  AVERAGE VALUES (normalized leukocyte cell density): 1609 cells* 10^3/ml
  INHIBITION RATE (leukocyte cell density): -100%

## CC(=O)OCC=Cc1ccc(OC(C)=O)cc1 [AG04-RA1, 4-(3-acetoxy-propenyl)-phenyl acetate]
interleukin-1β (mIL-1β)
  inhibition rate of interleukin-1β secretion: > 50%
interleukin-6 (mIL-6)
  inhibition rate of interleukin-6 secretion: > 50%
[1]
  INHIBITION RATE (neutrophil cell density): 43%
  AVERAGE VALUES (normalized cell density, neutrophil CD45^+/Ly6G^+ cells): 205 cells*10^3/ml
[2]
  AVERAGE VALUES (normalized leukocyte cell density): 670 cells* 10^3/ml
  INHIBITION RATE (leukocyte cell density): 17%
